US20200069691A1, “HETEROCYCLIC COMPOUNDS AS HIV PROTEASE INHIBITORS” (Merck Sharp & Dohme Corp., priority 2016, published 2020)

The compounds below were run against T1, wild-type HIV-1 protease (Human immunodeficiency virus type 1 group M subtype B, UniProt P04585) (assay: Assay for Inhibition of Microbial Expressed HIV Protease (peptide substrate cleavage, LC-MS/MS readout)). Settings: E. coli expressed wild-type HIV-1 protease, mean of at least two independent experiments, read-out: HIV Pr Enzyme HIV1 PR IC50.
T1 construct: Escherichia coli expressed wild-type HIV-1 protease protein
Assay type: biochemical
In short: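 Cleavage of Val-Ser-Gln-Asn-(β-naphthyl)Ala-Pro-Ile-Val (400 μM) by recombinant HIV-1 protease ([…]) ran 1 h at 30 °C after a 30 min room-temperature inhibitor preincubation in 50 mM sodium acetate pH 5.5. Product peak areas by LC-MS/MS gave inhibition; values average at least two independent runs.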

Row | Compound | IC50 [µM]
1 | CC(C)CC(c1ccc(C(F)(F)F)c(C(=O)N2Cc3nccnc3C2)c1)N1C(=N)N[C@](CC2CC2)(c2ccccc2)CC1=O (stereo partly drawn) [Compound 77, (6S)-6-(cyclopropylmethyl)-3-{1-[3-(5,7-dihydro-6H-pyrrolo[3,4-b]pyrazin-6-ylcarbonyl)-4-(trifluoromethyl)phenyl]-3-methyl-butyl}-2-imino-6-phenyltetra-hydropyrimidin-4(1H)-one] | 0.0105
2 | N=C1NC(c2ccccc2)(c2ccccc2)C(=O)N1Cc1cccc(C(=O)N2CCN(c3ncccn3)CC2)c1 [Compound 230, 2-imino-5,5-diphenyl-3-{3-[(4-pyrimidin-2-ylpiperazin-1-yl)carbonyl]benzyl} imidazolidin-4-one] | 0.0131
3 | COc1ccc2c(c1)CCN(C(=O)c1cc(CN3C(=N)NC(CCC(C)C)(c4ccccc4)C3=O)ccc1C(F)(F)F)CC2 (stereo not shown) [Compound 154, 2-imino-3-{3-[(7-methoxy-1,2,4,5-tetrahydro-3H-3-benzazepin-3-yl)carbonyl]-4-(trifluoromethyl)-benzyl}-5-(3-methylbutyl)-5-phenylimidazolidin-4-one] | 0.0102
4 | CC(C)CCC1(c2ccccc2)NC(=N)N(Cc2cccc(C(=O)N3Cc4nccnc4C3)c2)C1=O (stereo not shown) [Compound 208, 3-[3-(5,7-dihydro-6H-pyrrolo[3,4-b]pyrazin-6-ylcarbonyl)benzyl]-2-imino-5-(3-methylbutyl)-5-phenylimidazolidin-4-one] | 0.0352
5 | N=C1NC(CCC2CC2)(c2cccc(F)c2)C(=O)N1Cc1ccc(C(F)(F)F)c(C(=O)N2CCn3c(nnc3C(F)(F)F)C2)c1 (stereo not shown) [Compound 78, 5-(2-cyclopropylethyl)-5-(3-fluorophenyl)-2-imino-3-[4-(trifluoromethyl)-3-{[3-(trifluoro-methyl)-5,6-dihydro-[1,2,4]triazolo-[4,3-a]pyrazin-7(8H)-yl]carbonyl}-benzyl]imidazolidin-4-one] | 0.0105
6 | CC(C)CCC1(c2ccccc2)NC(=N)N(Cc2cccc(C(=O)N3CCC(n4c(=O)[nH]c5ccccc54)CC3)c2)C1=O (stereo not shown) [Compound 314, 1-{1-[(3-{[2-imino-4-(3-methylbutyl)-5-oxo-4-phenylimidazolidin-1-yl]methyl}phenyl)carbonyl]piperidin-4-yl}-1,3-dihydro-2H-benzimidazol-2-one] | 0.0521
7 | N=C1N[C@](CCCC(F)(F)F)(c2ccc(F)cc2)C(=O)N1Cc1ccc(C(F)(F)F)c(C(=O)N2Cc3cnc(NC4CCC4)nc3C2)c1 [Compound 85, (5R)-3-[3-{[2-(cyclobutylamino)-5,7-dihydro-6H-pyrrolo[3,4-d]pyrimidin-6-yl]carbonyl}-4-(trifluoromethyl)benzyl]-5-(4-fluorophenyl)-2-imino-5-(4,4,4-trifluorobutyl)imidazolidin-4-one] | 0.0144
8 | CC(C)CCC1(c2ccccc2)NC(=N)N(Cc2cccc(C(=O)N3Cc4cccnc4C3)c2)C1=O (stereo not shown) [Compound 218, 3-[3-(5,7-dihydro-6H-pyrrolo[3,4-b]pyridin-6-ylcarbonyl)benzyl]-2-imino-5-(3-methylbutyl)-5-phenylimidazolidin-4-one] | 0.0105
9 | N=C1N[C@](CCCC(F)(F)F)(c2ccc(F)cc2)C(=O)N1Cc1ccc(C(F)(F)F)c(C(=O)N2Cc3cnc(-c4ccc(-n5nccn5)cc4)nc3C2)c1 [Compound 117, (5R)-5-(4-fluorophenyl)-2-imino-3-[3-({2-[4-(2H-1,2,3-triazol-2-yl)phenyl]-5,7-dihydro-6H-pyrrolo[3,4-d]pyrimidin-6-yl}carbonyl)-4-(trifluoromethyl)-benzyl]-5-(4,4,4-trifluorobutyl)-imidazolidin-4-one] | 0.0385
10 | N=C1NC(c2ccc(F)cc2)(c2ccc(F)cc2)C(=O)N1Cc1ccc(Cl)c(C(=O)N2Cc3ccccc3C2)c1 [Compound 375, 3-[4-chloro-3-(1,3-dihydro-2H-isoindol-2-ylcarbonyl)benzyl]-5,5-bis(4-fluorophenyl)-2-iminoimidazolidin-4-one] | 0.00756
11 | COC(=O)Nc1ncc2c(n1)CN(C(=O)c1cccc(CN3C(=N)NC(CC(C)C)(c4ccccc4)C3=O)c1)C2 (stereo not shown) [Compound 188, methyl {6-[(3-{[2-imino-4-(2-methylpropyl)-5-oxo-4-phenylimidazolidin-1-yl]methyl}phenyl)carbonyl]-6,7-dihydro-5H-pyrrolo[3,4-d]pyrimidin-2-yl}carbamate] | 0.00378
12 | CNc1ncc2c(n1)CN(C(=O)c1cc(CN3C(=N)N[C@](CCCC(F)(F)F)(c4ccc(F)cc4)C3=O)ccc1C(F)(F)F)C2 [Compound 68, (5R)-5-(4-fluorophenyl)-2-imino-3-[3-{[2-(methylamino)-5,7-dihydro-6H-pyrrolo[3,4-d]pyrimidin-6-yl]carbonyl}-4-(trifluoromethyl)-benzyl]-5-(4,4,4-trifluorobutyl)-imidazolidin-4-one] | 0.0083
13 | N=C1NC(c2ccc(F)cc2)(c2ccc(F)cc2)C(=O)N1Cc1cccc(C(=O)N2Cc3ccc(C(F)(F)F)cc3C2)c1 [Compound 317, 5,5-bis(4-fluorophenyl)-2-imino-3-(3-{[5-(trifluoromethyl)-1,3-dihydro-2H-isoindol-2-yl]carbonyl}benzyl)-imidazolidin-4-one] | 0.0549
14 | Cc1cc2c(cn1)CN(C(=O)c1cccc(CN3C(=N)NC(c4ccc(F)cc4)(c4ccc(F)cc4)C3=O)c1)C2 [Compound 226, 5,5-bis(4-fluorophenyl)-2-imino-3-{3-[(6-methyl-1,3-dihydro-2H-pyrrolo[3,4-c]pyridin-2-yl)carbonyl]benzyl} imidazolidin-4-one] | 0.0124
15 | N=C1NC(c2ccccc2)(c2ccc(-c3ccccc3)cc2)C(=O)N1Cc1cccc(C(=O)N2Cc3nccnc3C2)c1 (stereo not shown) [Compound 192, 5-biphenyl-4-yl-3-[3-(5,7-dihydro-6H-pyrrolo[3,4-b]pyrazin-6-ylcarbonyl)benzyl]-2-imino-5-phenylimidazolidin-4-one] | 0.0442
16 | N=C1NC(c2ccc(F)cc2)(c2ccc(F)cc2)C(=O)N1Cc1ccc(C(F)(F)F)c(C(=O)N2Cc3cncnc3C2)c1 [Compound 138, 3-[3-(5,7-dihydro-6H-pyrrolo[3,4-d]pyrimidin-6-ylcarbonyl)-4-(trifluoromethyl)benzyl]-5,5-bis(4-fluorophenyl)-2-iminoimidazolidin-4-one] | 0.00278
17 | N=C1NC(c2ccccc2)(c2ccc(Br)cc2)C(=O)N1Cc1cccc(C(=O)N2Cc3ccccc3C2)c1 (stereo not shown) [Compound 213, 5-(4-bromophenyl)-3-[3-(1,3-dihydro-2H-isoindol-2-ylcarbonyl)benzyl]-2-imino-5-phenylimidazolidin-4-one] | 0.00977
18 | CC(C)CC[C@]1(c2ccc(F)cc2)NC(=N)N(C(COC(C)C)c2ccc(C(F)(F)F)c(C(=O)N3Cc4nccnc4C3)c2)C1=O (stereo partly drawn) [Compound 8, (5R)-3-{1-[3-(5,7-dihydro-6H-pyrrolo[3,4-b]pyrazin-6-ylcarbonyl)-4-(trifluoromethyl)phenyl]-2-(1-methylethoxy)ethyl}-5-(4-fluorophenyl)-2-imino-5-(3-methylbutyl)imidazolidin-4-one] | 0.00052
19 | CC(C)CCC1(c2ccc(F)cc2)NC(=N)N(Cc2ccc(C(F)(F)F)c(C(=O)N3Cc4cncnc4C3)c2)C1=O (stereo not shown) [Compound 144, 3-[3-(5,7-dihydro-6H-pyrrolo[3,4-d]pyrimidin-6-ylcarbonyl)-4-(trifluoromethyl)benzyl]-5-(4-fluorophenyl)-2-imino-5-(3-methylbutyl)imidazolidin-4-one] | 0.00373
20 | CC(C)CC[C@]1(c2ccccc2)NC(=N)N([C@H](C)c2cccc(C(=O)N3Cc4nccnc4C3)c2)C1=O [Compound 217, 3-{(1R)-1-[3-(5,7-dihydro-6H-pyrrolo[3,4-b]pyrazin-6-ylcarbonyl)phenyl]ethyl}-2-imino-5-(3-methylbutyl)-5-phenylimidazolidin-4-one] | 0.0103
21 | CNC(=O)c1nc2n(c1Cl)CCN(C(=O)c1cccc(CN3C(=N)NC(c4ccccc4)(c4ccccc4)C3=O)c1)C2 [Compound 251, 3-chloro-7-({3-[(2-imino-5-oxo-4,4-diphenylimidazolidin-1-yl)methyl]phenyl}carbonyl)-N-methyl-5,6,7,8-tetrahydroimidazo[1,2-a]pyrazine-2-carboxamide] | 0.0192
22 | COC(=O)C1c2ccccc2CN1C(=O)c1cccc(CN2C(=N)NC(c3ccccc3)(c3ccccc3)C2=O)c1 (stereo not shown) [Compound 287, methyl 2-({3-[(2-imino-5-oxo-4,4-diphenylimidazolidin-1-yl)methyl]phenyl}carbonyl)-2,3-dihydro-1H-isoindole-1-carboxylate] | 0.0339
23 | N=C1N[C@](CCC2CC2)(c2ccc(F)cc2)C(=O)N1C(CN1CCCC1=O)c1ccc(C(F)(F)F)c(C(=O)N2Cc3nccnc3C2)c1 (stereo partly drawn) [Compound 7, (5R)-5-(2-cyclopropylethyl)-3-{1-[3-(5,7-dihydro-6H-pyrrolo[3,4-b]pyrazin-6-ylcarbonyl)-4-(trifluoromethyl)phenyl]-2-(2-oxopyrrolidin-1-yl)ethyl}-5-(4-fluorophenyl)-2-iminoimidazolidin-4-one] | 0.00039
24 | N=C1N[C@](C[C@@H]2CCOC2)(c2ccccc2)C(=O)N1Cc1ccc(C(F)(F)F)c(C(=O)N2Cc3nccnc3C2)c1 [Compound 70, (5R)-3-[3-(5,7-dihydro-6H-pyrrolo[3,4-b]pyrazin-6-ylcarbonyl)-4-(trifluoromethyl)-benzyl]-2-imino-5-phenyl-5-[(3R)-tetrahydrofuran-3-ylmethyl]imidazolidin-4-one] | 0.00889
25 | CC(C)CC1(c2ccccc2)NC(=N)N(Cc2ccc(Cl)c(C(=O)N3Cc4cncnc4C3)c2)C1=O (stereo not shown) [Compound 373, 3-[4-chloro-3-(5,7-dihydro-6H-pyrrolo[3,4-d]pyrimidin-6-ylcarbonyl)benzyl]-2-imino-5-(2-methylpropyl)-5-phenylimidazolidin-4-one] | 0.00693
